Results reported in the kinase profiling compilation of Christmann-Franck et al. (2016).

Legend:
Assay in all cases: KINOMEscan competition binding
Details in all cases: compound 1.0 µM
[1] = molecular target: ACVR1 (human) (UniProt Q04771)
[2] = molecular target: AURKB (human) (UniProt Q96GD4)
[3] = molecular target: CAMK2B (human) (UniProt Q13554)
[4] = molecular target: CDK11B (human) (UniProt P21127)
[5] = molecular target: CDK5 (human) (UniProt Q00535)
[6] = molecular target: CDK8 (human) (UniProt P49336)
[7] = molecular target: DAPK3 (human) (UniProt O43293)
[8] = molecular target: DDR2 (human) (UniProt Q16832)
[9] = test system: EGFR (human), P00533 [A750P; 747-749 del]
[10] = molecular target: EPHA7 (human) (UniProt Q15375)
[11] = molecular target: ERBB2 (human) (UniProt P04626)
[12] = molecular target: FER (human) (UniProt P16591)
[13] = test system: FGFR3 (human), P22607 [G697C]
[14] = test system: FLT3 (human), P36888 [R834Q]
[15] = molecular target: FLT4 (human) (UniProt P35916)
[16] = molecular target: HUNK (human) (UniProt P57058)
[17] = molecular target: ICK (human) (UniProt Q9UPZ9)
[18] = molecular target: IKBKB (human) (UniProt O14920)
[19] = molecular target: JAK3 JH1 catalytic (human) (UniProt P52333)
[20] = molecular target: KDR (human) (UniProt P35968)
[21] = molecular target: LCK (human) (UniProt P06239)
[22] = molecular target: LIMK1 (human) (UniProt P53667)
[23] = molecular target: MAPK1 (human) (UniProt P28482)
[24] = molecular target: MAPK4 (human) (UniProt P31152)
Sequence of MAPK4 (human) (P31152 whole entry, looked up): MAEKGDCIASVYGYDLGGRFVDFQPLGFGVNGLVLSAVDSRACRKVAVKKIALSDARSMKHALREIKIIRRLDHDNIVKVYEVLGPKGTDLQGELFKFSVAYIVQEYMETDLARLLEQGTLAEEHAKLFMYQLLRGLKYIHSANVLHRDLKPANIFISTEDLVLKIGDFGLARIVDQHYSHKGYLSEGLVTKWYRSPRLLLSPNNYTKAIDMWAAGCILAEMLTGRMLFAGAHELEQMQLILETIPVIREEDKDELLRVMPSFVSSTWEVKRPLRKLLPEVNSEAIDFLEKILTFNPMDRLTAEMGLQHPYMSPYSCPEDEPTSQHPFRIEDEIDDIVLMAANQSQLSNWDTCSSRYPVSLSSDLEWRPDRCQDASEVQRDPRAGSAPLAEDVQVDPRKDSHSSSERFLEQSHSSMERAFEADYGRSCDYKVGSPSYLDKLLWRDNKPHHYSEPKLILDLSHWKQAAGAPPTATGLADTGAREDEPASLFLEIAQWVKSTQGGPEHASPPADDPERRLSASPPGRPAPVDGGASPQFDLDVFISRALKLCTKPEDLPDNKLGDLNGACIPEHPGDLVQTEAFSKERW

[25] = molecular target: MAPKAPK2 (human) (UniProt P49137)
Sequence of MAPKAPK2 (human) (P49137 whole entry, looked up): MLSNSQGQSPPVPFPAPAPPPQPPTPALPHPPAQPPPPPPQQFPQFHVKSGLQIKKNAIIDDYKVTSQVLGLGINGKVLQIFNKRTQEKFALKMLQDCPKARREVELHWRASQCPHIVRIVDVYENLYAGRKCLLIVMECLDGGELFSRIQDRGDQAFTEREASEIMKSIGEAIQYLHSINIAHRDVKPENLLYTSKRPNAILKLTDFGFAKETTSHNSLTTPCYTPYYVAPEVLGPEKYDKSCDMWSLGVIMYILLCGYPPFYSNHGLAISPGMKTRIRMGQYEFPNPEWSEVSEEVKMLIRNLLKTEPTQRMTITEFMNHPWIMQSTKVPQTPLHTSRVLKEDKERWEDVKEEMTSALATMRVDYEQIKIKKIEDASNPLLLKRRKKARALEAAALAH

[26] = molecular target: MINK1 (human) (UniProt Q8N4C8)
[27] = molecular target: MYLK4 (human) (UniProt Q86YV6)
[28] = molecular target: MYO3A (human) (UniProt Q8NEV4)
Sequence of MYO3A (human) (Q8NEV4 whole entry, looked up): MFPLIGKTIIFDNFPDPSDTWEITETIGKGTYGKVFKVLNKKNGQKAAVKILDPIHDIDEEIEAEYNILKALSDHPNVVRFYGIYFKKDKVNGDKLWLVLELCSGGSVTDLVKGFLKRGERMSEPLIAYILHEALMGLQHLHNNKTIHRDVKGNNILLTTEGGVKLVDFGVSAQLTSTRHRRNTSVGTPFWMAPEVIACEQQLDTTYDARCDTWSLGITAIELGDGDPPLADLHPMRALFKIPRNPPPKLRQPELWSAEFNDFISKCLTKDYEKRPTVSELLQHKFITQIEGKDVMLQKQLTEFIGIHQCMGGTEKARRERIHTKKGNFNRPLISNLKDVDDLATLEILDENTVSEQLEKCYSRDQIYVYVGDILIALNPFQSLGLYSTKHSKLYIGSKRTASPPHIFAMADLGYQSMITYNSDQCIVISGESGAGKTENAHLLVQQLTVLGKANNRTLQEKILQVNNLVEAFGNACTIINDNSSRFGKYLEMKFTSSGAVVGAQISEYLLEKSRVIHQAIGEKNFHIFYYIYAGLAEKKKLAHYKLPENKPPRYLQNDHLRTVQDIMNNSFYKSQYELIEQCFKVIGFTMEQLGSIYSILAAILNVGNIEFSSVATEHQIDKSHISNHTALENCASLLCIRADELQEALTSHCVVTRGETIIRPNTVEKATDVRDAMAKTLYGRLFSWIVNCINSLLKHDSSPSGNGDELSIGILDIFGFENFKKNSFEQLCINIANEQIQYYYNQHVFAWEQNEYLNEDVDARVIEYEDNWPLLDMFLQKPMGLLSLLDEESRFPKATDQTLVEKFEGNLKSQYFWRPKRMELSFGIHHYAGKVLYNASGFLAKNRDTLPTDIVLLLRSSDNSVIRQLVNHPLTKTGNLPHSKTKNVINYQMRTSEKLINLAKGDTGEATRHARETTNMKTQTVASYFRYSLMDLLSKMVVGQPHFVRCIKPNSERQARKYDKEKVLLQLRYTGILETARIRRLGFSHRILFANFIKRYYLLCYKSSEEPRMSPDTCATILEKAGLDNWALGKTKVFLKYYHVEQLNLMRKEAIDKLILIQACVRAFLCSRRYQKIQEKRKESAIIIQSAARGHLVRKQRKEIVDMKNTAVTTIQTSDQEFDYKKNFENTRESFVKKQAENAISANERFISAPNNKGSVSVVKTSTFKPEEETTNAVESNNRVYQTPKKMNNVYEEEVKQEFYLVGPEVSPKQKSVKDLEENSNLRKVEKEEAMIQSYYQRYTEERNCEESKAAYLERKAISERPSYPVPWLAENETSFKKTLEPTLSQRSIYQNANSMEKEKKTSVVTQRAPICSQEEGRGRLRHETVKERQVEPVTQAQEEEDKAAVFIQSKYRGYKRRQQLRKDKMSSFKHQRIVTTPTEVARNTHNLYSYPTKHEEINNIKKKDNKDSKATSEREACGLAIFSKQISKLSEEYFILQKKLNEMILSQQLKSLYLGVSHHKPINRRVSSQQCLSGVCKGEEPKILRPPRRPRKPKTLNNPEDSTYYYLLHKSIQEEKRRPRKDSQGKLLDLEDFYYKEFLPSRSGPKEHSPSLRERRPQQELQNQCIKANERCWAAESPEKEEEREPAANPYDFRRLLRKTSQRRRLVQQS

[29] = molecular target: NUAK2 (human) (UniProt Q9H093)
[30] = molecular target: PDGFRB (human) (UniProt P09619)
[31] = molecular target: PIM1 (human) (UniProt P11309)
[32] = molecular target: PIM2 (human) (UniProt Q9P1W9)
[33] = molecular target: PIM3 (human) (UniProt Q86V86)
[34] = molecular target: PIP5K1A (human) (UniProt Q99755)
[35] = molecular target: RPS6KA4 KD2 (human) (UniProt O75676)
[36] = molecular target: SBK1 (human) (UniProt Q52WX2)
Sequence of SBK1 (human) (Q52WX2 whole entry, looked up): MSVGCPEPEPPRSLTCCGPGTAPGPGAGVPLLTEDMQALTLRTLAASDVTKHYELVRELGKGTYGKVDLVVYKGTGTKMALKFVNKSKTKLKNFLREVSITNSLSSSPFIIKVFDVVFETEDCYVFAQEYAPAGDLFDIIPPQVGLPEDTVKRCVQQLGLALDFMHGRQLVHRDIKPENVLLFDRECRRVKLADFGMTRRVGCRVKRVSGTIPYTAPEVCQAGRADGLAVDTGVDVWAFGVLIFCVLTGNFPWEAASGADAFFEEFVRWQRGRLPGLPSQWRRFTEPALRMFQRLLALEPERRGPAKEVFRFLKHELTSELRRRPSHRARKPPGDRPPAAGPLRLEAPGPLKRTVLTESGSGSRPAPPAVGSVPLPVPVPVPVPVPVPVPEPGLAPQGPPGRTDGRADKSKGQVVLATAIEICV

[37] = molecular target: SRPK1 (human) (UniProt Q96SB4)
[38] = molecular target: STK24 (human) (UniProt Q9Y6E0)
[39] = molecular target: STK36 (human) (UniProt Q9NRP7)
[40] = molecular target: TAOK2 (human) (UniProt Q9UL54)
[41] = molecular target: TNIK (human) (UniProt Q9UKE5)
Sequence of TNIK (human) (Q9UKE5 whole entry, looked up): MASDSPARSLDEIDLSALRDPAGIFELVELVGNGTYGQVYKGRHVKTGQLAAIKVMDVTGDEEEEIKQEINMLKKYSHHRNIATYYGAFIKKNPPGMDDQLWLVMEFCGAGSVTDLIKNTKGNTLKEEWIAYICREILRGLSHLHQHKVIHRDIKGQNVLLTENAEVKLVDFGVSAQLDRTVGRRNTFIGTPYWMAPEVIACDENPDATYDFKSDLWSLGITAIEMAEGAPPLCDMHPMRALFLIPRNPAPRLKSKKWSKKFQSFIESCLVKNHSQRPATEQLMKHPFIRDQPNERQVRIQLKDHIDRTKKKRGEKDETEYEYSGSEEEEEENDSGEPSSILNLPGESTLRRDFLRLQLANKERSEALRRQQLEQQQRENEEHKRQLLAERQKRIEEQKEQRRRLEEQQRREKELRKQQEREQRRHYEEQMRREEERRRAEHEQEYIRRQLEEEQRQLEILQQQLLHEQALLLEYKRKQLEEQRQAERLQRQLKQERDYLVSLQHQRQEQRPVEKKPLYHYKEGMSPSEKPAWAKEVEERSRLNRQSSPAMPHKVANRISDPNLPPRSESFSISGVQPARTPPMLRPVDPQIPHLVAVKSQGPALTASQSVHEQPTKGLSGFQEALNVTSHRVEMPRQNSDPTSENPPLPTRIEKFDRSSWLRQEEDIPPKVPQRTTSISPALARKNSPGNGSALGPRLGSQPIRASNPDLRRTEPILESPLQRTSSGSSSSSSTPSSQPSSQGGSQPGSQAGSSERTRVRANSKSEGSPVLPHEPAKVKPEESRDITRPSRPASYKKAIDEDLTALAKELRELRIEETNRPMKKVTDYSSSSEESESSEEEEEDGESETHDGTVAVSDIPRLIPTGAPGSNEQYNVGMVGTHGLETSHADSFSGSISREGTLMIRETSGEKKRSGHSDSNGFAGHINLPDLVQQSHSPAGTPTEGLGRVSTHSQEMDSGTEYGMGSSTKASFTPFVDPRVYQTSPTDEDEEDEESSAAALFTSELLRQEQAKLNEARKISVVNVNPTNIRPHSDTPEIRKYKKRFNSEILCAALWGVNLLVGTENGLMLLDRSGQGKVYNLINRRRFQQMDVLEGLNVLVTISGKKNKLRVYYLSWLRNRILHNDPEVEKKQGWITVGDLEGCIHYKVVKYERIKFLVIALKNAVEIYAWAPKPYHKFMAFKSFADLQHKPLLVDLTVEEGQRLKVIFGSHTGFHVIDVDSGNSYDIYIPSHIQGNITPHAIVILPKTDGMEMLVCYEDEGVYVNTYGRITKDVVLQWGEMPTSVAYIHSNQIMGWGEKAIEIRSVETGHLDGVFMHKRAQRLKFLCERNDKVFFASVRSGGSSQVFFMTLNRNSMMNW

[42] = molecular target: TYRO3 (human) (UniProt Q06418)
[43] = molecular target: YES1 (human) (UniProt P07947)
Sequence of YES1 (human) (P07947 whole entry, looked up): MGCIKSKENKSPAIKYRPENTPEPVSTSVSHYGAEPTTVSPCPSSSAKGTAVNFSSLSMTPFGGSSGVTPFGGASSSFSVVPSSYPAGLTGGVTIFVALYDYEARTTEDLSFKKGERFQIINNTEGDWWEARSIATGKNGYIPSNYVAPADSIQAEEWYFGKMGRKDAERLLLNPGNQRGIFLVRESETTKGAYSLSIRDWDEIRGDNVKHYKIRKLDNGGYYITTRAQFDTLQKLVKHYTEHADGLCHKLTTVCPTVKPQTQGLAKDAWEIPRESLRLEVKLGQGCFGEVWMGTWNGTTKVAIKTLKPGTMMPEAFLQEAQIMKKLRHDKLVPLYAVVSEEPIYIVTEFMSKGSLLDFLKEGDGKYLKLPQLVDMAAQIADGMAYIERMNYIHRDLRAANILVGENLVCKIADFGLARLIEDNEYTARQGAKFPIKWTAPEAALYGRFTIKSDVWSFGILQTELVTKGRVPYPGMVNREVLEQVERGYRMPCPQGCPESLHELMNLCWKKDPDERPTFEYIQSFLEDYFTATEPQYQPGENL

## COCCNCCCn1c(C(=O)CF)c(-c2ccc(C)cc2)c2c(N)ncnc21
[1]
  kinase still bound, per cent of control: 100%
[2]
  kinase still bound, per cent of control: 62%
[3]
  kinase still bound, per cent of control: 97%
[4]
  kinase still bound, per cent of control: 100%
[5]
  kinase still bound, per cent of control: 95%
[6]
  kinase still bound, per cent of control: 100%
[7]
  kinase still bound, per cent of control: 97%
[8]
  kinase still bound, per cent of control: 99%
[9]
  kinase still bound, per cent of control: 67%
[10]
  kinase still bound, per cent of control: 92%
[11]
  kinase still bound, per cent of control: 100%
[12]
  kinase still bound, per cent of control: 84%
[13]
  kinase still bound, per cent of control: 91%
[14]
  kinase still bound, per cent of control: 96%
[15]
  kinase still bound, per cent of control: 98%
[16]
  kinase still bound, per cent of control: 100%
[17]
  kinase still bound, per cent of control: 100%
[18]
  kinase still bound, per cent of control: 95%
[19]
  kinase still bound, per cent of control: 100%
[20]
  kinase still bound, per cent of control: 85%
[21]
  kinase still bound, per cent of control: 65%
[22]
  kinase still bound, per cent of control: 100%
[23]
  kinase still bound, per cent of control: 100%
[24]
  kinase still bound, per cent of control: 100%
[25]
  kinase still bound, per cent of control: 97%
[26]
  kinase still bound, per cent of control: 100%
[27]
  kinase still bound, per cent of control: 86%
[28]
  kinase still bound, per cent of control: 100%
[29]
  kinase still bound, per cent of control: 96%
[30]
  kinase still bound, per cent of control: 68%
[31]
  kinase still bound, per cent of control: 100%
[32]
  kinase still bound, per cent of control: 99%
[33]
  kinase still bound, per cent of control: 100%
[34]
  kinase still bound, per cent of control: 100%
[35]
  kinase still bound, per cent of control: 100%
[36]
  kinase still bound, per cent of control: 98%
[37]
  kinase still bound, per cent of control: 100%
[38]
  kinase still bound, per cent of control: 78%
[39]
  kinase still bound, per cent of control: 95%
[40]
  kinase still bound, per cent of control: 100%
[41]
  kinase still bound, per cent of control: 95%
[42]
  kinase still bound, per cent of control: 100%
[43]
  kinase still bound, per cent of control: 92%
